A word on the Ki: it is a dissociation constant, usually derived from enzyme kinetics or from competition with a known ligand. High values mean weaker binding, low ones tighter binding.

The values that follow come from ChEMBL document CHEMBL1134426, “Derivatives of 17-(2-methylallyl)-substituted noroxymorphone: variation of the delta address and its effects on affinity and selectivity for the delta opioid receptor” (Bioorg Med Chem Lett, 2001).

In assay [1] the target is Opioid receptors; mu & delta (Homo sapiens) (UniProt P41143+P35372). Briefly: Selectivity ratio for mu and delta opioid receptor binding. It counts as protein assay.
Sequence of Opioid receptors; mu & delta (Homo sapiens) (P35372 whole entry, looked up): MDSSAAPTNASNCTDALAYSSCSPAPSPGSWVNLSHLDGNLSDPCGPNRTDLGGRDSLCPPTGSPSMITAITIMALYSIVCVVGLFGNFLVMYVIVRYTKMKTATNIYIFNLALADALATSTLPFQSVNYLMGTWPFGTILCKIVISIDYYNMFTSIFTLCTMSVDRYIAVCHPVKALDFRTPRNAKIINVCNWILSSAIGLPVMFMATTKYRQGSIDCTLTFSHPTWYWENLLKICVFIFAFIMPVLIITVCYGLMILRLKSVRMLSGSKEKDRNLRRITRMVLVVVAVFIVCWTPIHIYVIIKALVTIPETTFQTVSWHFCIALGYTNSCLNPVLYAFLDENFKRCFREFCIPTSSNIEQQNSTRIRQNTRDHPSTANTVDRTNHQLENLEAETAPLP
Sequence of Opioid receptors; mu & delta (Homo sapiens) (P41143 whole entry, looked up): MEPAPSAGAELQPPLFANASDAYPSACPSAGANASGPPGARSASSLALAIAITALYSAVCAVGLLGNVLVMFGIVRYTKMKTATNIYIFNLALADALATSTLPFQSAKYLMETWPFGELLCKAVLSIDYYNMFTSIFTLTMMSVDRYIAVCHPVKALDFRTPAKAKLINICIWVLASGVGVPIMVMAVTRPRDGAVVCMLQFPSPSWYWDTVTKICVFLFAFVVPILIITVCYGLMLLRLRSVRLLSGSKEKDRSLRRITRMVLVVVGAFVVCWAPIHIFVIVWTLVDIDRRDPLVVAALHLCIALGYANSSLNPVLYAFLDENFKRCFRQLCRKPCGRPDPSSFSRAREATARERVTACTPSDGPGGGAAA
Assay [2] concerns the target Opioid receptors; delta & kappa (Homo sapiens) (UniProt P41145+P41143). Put plainly: Selectivity ratio for kappa and delta opioid receptor binding. Format: protein assay.
The target of assay [3] is Delta-type opioid receptor (Homo sapiens, UniProt P41143). Put plainly: Displacement of [3H]DADLE from Opioid receptor delta 1.
Sequence of Delta-type opioid receptor (P41143 whole entry): as the sequence (P41143 whole entry, looked up) above
In assay [4] the target is Kappa-type opioid receptor (Homo sapiens, UniProt P41145). Briefly: Displacement of [3H]U-69593 from Opioid receptor kappa 1. For orientation: In a radioligand displacement assay an active substance lowers the binding of a labelled ligand.
Sequence of Kappa-type opioid receptor (P41145 whole entry): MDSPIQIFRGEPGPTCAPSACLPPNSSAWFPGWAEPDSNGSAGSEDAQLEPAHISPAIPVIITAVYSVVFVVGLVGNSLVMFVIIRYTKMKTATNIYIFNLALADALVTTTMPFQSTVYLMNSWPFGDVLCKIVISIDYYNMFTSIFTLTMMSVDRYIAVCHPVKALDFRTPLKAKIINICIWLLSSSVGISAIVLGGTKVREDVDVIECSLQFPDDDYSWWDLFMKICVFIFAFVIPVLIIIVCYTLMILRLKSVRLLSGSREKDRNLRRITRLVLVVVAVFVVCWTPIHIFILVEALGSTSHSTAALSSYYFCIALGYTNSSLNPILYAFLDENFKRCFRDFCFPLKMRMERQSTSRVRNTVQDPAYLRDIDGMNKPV
Assay [5] addresses Mu-type opioid receptor (Homo sapiens, UniProt P35372). Put plainly: Displacement of [3H]DAMGO from Opioid receptor mu 1.

Sequence of Mu-type opioid receptor (P35372 whole entry): as the sequence (P35372 whole entry, looked up) above
Sequence of Opioid receptors; delta & kappa (Homo sapiens) (P41143 whole entry, looked up): as the sequence (P41143 whole entry, looked up) above
Sequence of Opioid receptors; delta & kappa (Homo sapiens) (P41145 whole entry, looked up): as the sequence (P41145 whole entry) above

In the case of `C=C(C)CN1CCC23c4c5ccc(O)c4O[C@H]2c2n[nH]cc2C[C@@]3(O)C1C5` (stereo partly drawn), the Selectivity ratio in assay [1] came to 4; in assay [2], 1.

Regarding `C=C(C)CN1CCC23c4c5ccc(OC)c4O[C@H]2c2oc4ccccc4c2C[C@@]3(O)C1C5` (stereo partly drawn), the Ki in assay [3] is 44 nM; in assay [4], over 10000 nM; in assay [5], over 6000 nM. Further, the Selectivity ratio came out at 140 in assay [1] and 230 in assay [2].

Consider `C=C(C)CN1CCC23c4c5ccc(O)c4O[C@H]2c2oc4ccccc4c2C[C@@]3(O)C1C5` (stereo partly drawn), for which the Ki in assay [3] came to 8.2 nM; in assay [4], 580 nM; in assay [5] it was 1300 nM. In addition, the values for the Selectivity ratio in assay [1] and in assay [2] were 160 and 71, respectively.

Regarding `C=C(C)CN1CCC23c4c5ccc(OC)c4O[C@H]2c2ncc(-c4ccc(Cl)cc4)cc2C[C@@]3(O)C1C5` (stereo partly drawn), the values for the Ki in assay [3], in assay [4] and in assay [5] were 260 nM, 3200 nM and over 6000 nM, respectively. The Selectivity ratio in assay [1] amounted to 23; in assay [2] it was 12.

On to `C=C(C)CN1CCC23c4c5ccc(OC)c4O[C@H]2C(=O)C2(Cc4ccccc4C2)C[C@@]3(O)C1C5` (stereo partly drawn), for which the Ki in assay [3] is over 7200 nM; in assay [4], over 7000 nM; in assay [5] it was over 6000 nM.

In the case of `C=C(C)CN1CCC23c4c5ccc(O)c4O[C@H]2c2ncc(-c4ccc(Cl)cc4)cc2C[C@@]3(O)C1C5` (stereo partly drawn), the results for the Ki in assay [3], in assay [4] and in assay [5] were 16 nM, 300 nM and over 6000 nM, respectively. Besides, the values for the Selectivity ratio in assay [1] and in assay [2] were over 380 and 19, respectively.

With `C=C(C)CN1CCC23c4c5ccc(OC)c4O[C@H]2C(=O)/C(=C/c2ccccc2)C[C@@]3(O)C1C5` (stereo partly drawn), the figures for the Ki in assay [3], in assay [4] and in assay [5] were 3400 nM, over 7000 nM and over 6000 nM, respectively. Moreover, the Selectivity ratio in assay [1] is over 1; in assay [2] it was over 2.

For the compound `C=C(C)CN1CCC23c4c5ccc(OC)c4O[C@H]2c2n[nH]cc2C[C@@]3(O)C1C5` (stereo partly drawn), the Selectivity ratio was over 2 in assay [1] and 1 in assay [2].

For the compound `C=C(C)CN1CCC23c4c5ccc(O)c4O[C@H]2C(=O)C2(Cc4ccccc4C2)C[C@@]3(O)C1C5` (stereo partly drawn), the Ki was found to be 41 nM in assay [3], 1000 nM in assay [4] and 2000 nM in assay [5]. Further, the Selectivity ratio in assay [1] is 49; in assay [2], 24.

`C=C(C)CN1CCC23c4c5ccc(OC)c4O[C@H]2c2[nH]c4ccccc4c2C[C@@]3(O)C1C5` (stereo partly drawn): the results for the Ki in assay [3], in assay [4] and in assay [5] were 500 nM, over 14000 nM and over 6000 nM, respectively. Further, the Selectivity ratio is over 12 in assay [1] and over 28 in assay [2].

With `C=C(C)CN1CCC23c4c5ccc(O)c4O[C@H]2c2[nH]c4ccccc4c2C[C@@]3(O)C1C5` (stereo partly drawn), the Ki in assay [3] worked out at 4.7 nM; in assay [4], 3800 nM; in assay [5] it was 7900 nM. The results for the Selectivity ratio in assay [1] and in assay [2] were 1700 and 810, respectively.

`C=C(C)CN1CCC23c4c5ccc(O)c4O[C@H]2C(=O)/C(=C/c2ccccc2)C[C@@]3(O)C1C5` (stereo partly drawn): the Ki worked out at 210 nM in assay [3], 4500 nM in assay [4] and 4500 nM in assay [5]. Further, the Selectivity ratio in assay [1] and in assay [2] was 21 throughout.

Take `C=C(C)CN1CCC23c4c5ccc(O)c4O[C@H]2c2[nH]ncc2C[C@@]3(O)C1C5` (stereo partly drawn): the Ki amounted to 40 nM in assay [3], 38 nM in assay [4] and 140 nM in assay [5].

For `C=C(C)CN1CCC23c4c5ccc(OC)c4O[C@H]2c2[nH]ncc2C[C@@]3(O)C1C5` (stereo partly drawn), the Ki in assay [3] was 2400 nM; in assay [4], 3100 nM; in assay [5], over 6000 nM.
